Consider 1 molecule from publication PMC6590375 (Journal of Clinical Pharmacology, 2019).

The format of series [1] is in vivo, human. Particulars: for AUCinf central value, higher than in subjects with normal renal function: regression analyses.
The format of series [2] is in vivo, human.
The conditions of series [3]: human, plasma, oral.
The conditions of series [4]: cited from earlier work.
Setting [5] is: mild renal impairment (N = 6), single 15-mg extended-release dose, fasting.
Where [6] appears, read: normal renal function (N = 6), single 15-mg extended-release dose, fasting.
Where [7] appears, read: severe renal impairment (N = 6), single 15-mg extended-release dose, fasting.
Where [8] appears, read: single 15 mg dose, all subjects.

SMILES strings stand for the structures. Like-named read-outs stand apart in the source and are kept apart here.

As for `CC[C@@H]1CN(C(=O)NCC(F)(F)F)C[C@@H]1c1cnc2cnc3[nH]ccc3n12` [Upadacitinib], the CL renal in series [1] (both, human, urine and plasma, oral, 15 mg) is 32.7 mL/min; in series [3], roughly 400 mL/min. The “fe (fraction of dose excreted unchanged in urine), arithmetic mean ± SD” value in series [1] (setting [5]) is reported as 7.03 ± 3.05%; in series [1] (setting [6]) it was 9.91 ± 4.05%; in series [1] (setting [7]), 2.48 ± 1.62%. Also, the “fe (fraction of dose excreted unchanged in urine), geometric mean” value is recorded as 6.51% in series [1] (setting [5]), 9.24% in series [1] (setting [6]) and 2.10% in series [1] (setting [7]). In series [1] (setting [6]), the “CLR (renal clearance), arithmetic mean ± SD” value was determined as 5.64 ± 2.13 L/h. Also, the figures for the “AUCinf central value, higher than in subjects with normal renal function” value in series [1] (mild renal impairment), in series [1] (moderate renal impairment) and in series [1] (severe renal impairment) were 18%, 33% and 44%, respectively. Also, in series [2] (one subject in the mild renal impairment group, mild, reasonable possibility of being related to study drug, no other adverse events reported), the Adverse events result is “diarrhea and upper respiratory infection”. In addition, the “Physical exam, vital signs, electrocardiogram and laboratory findings” value in series [2] (setting [8]) is “no clinically significant physical exam findings, vital sign measurements, electrocardiogram abnormalities, or laboratory test abnormalities”. Besides, the Tolerability entry in series [2] (setting [8]) is “well tolerated”. The “Immediate-release dose eliminated in urine as unchanged upadacitinib” value in series [4] (immediate-release formulation) is “Approximately 20%”. Moreover, the “Dose proportionality of plasma exposures” value in series [4] (over the range of immediate-release or extended-release doses evaluated in clinical studies) is on record as “approximately dose‐proportional”.
